Experimental data: US4382889A, “Epoxysuccinic acid derivatives” (Taisho Pharmaceutical Co., Ltd., priority 1979, dated 1983)
Where a name gives a salt, the structure may show the parent alone.

Tests used:
[1] = Concentration of test compound in rat plasma after subcutaneous administration; type: in vivo; conditions: sc, 50 mg/kg, an hour after administration
Experimental: The compounds of the present invention are better absorbed by the subcutaneous route in mammals such as rats or rabbits, as compared with the epoxysuccinic acid derivatives of the German Patent Laid Open Application described above and Chemical Abstracts, 87, 68129a (1977). To determine absorption, these compounds were administered subcutaneously to rat at a dose of 50 mg/kg, and the concentration of the test compound in rat plasma at an hour after the administration was shown in Table 1.

[2] = target: T1, calcium-activated neutral thiolprotease (CANP) (Gallus gallus, UniProt P00789); assay: CANP inhibitory activity (method of Ishiura et al); type: biochemical; conditions: 50% inhibition as molar ratio to the enzyme; CANP from muscle of hereditary muscular dystrophy chicken
T1 construct: CANP prepared from a muscle of hereditary muscular dystrophy chicken; from tissue; host or cells: muscle of hereditary muscular dystrophy chicken
T1 sequence (P00789 1-705): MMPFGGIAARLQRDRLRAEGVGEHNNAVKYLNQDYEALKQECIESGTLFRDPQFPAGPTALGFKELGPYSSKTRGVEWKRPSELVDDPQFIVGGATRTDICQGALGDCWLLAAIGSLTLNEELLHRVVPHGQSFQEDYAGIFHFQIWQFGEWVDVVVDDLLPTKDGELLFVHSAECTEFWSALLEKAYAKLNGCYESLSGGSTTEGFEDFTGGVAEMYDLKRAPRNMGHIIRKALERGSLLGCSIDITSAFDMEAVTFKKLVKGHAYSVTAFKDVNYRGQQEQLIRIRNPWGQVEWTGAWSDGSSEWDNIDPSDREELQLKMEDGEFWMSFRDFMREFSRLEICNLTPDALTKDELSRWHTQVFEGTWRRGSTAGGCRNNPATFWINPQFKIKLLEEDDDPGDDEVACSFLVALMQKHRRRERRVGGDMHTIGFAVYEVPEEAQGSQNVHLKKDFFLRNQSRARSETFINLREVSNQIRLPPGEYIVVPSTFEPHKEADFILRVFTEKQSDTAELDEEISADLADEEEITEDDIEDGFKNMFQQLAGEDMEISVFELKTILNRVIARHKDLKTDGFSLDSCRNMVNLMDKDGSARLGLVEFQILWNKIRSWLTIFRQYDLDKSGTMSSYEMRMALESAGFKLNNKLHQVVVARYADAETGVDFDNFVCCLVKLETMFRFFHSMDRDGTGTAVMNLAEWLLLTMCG
Experimental: Their muscular dystrophy inhibitory activity was assayed by the method of Ishiura et al, [J. of Biochem., 84, 225(1978)] using CANP prepared from a muscle of hereditary muscular dystrophy chicken, and the resulting value for 50% inhibition in the molar ratios for the enzyme expressed as ID50 (mole/mole) is shown in Table 1.

[3] = target: T2, papain (Carica papaya, UniProt P00784); assay: Papain inhibitory activity (method of K. Hanada et al); type: biochemical; conditions: papain 80 ug/ml, Sigma, 2 x cry.
T2 construct: purchased Sigma Chem. Co
T2 sequence (P00784 134-345): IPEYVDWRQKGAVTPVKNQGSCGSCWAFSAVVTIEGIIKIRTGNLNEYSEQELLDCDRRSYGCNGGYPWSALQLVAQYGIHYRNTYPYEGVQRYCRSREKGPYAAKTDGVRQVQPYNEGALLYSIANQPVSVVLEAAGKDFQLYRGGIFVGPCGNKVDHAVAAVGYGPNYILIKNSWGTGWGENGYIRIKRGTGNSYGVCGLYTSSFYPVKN
Experimental: Papain inhibitory activity of the compounds of the present invention was assayed by the method of K. Hanada et al, [Argric. Biol. Chem., 42, No. 3, 523(1978)] using papain (80 ug/ml, Sigma Chem. Co., 2 x cry.).

In the case of `CC(C)C[C@H](NC(=O)C1OC1C(=O)OCc1ccccc1)C(=O)N[C@@H](CCCNC(=O)OCc1ccccc1)C(=O)OCc1ccccc1` (mixture of isomers) [Compound 30, N-(DL-3-trans-benzyloxycarbonyloxirane-2-carbonyl)-L-leucyl-δ-carbobenzoxy-L-ornithine benzyl ester], the concentration at 1 h [1] is reported as 2000 ng/mL, the “CANP Inhibitory Activity ID50 (mole/mole)” value [2] is reported as 100 mole/mole and the “Papain ID50 (amount of inhibitor for 50% inhibition)” value [3] is reported as 0.391 µg.
In the case of `CCOC(=O)C1OC1C(=O)N[C@@H](CC(C)C)C(=O)OCc1ccccc1` (stereo partly drawn) [C, N--(3ethoxy-carbonyloxirane-2-carbonyl)-L-leucine benzyl ester, reference compound], the concentration at 1 h [1] is reported as < 1000 ng/mL and the “CANP Inhibitory Activity ID50 (mole/mole)” value [2] is reported as 580 mole/mole.
For `CC(C)C[C@H](NC(=O)C1OC1C(=O)O)C(=O)NC(C)C` (mixture of isomers) [Compound 15, N-[N'-(DL-3-trans-carboxyoxirane-2-carbonyl)-L-leucyl]isopropylamine potassium salt], the concentration at 1 h [1] was 20000 ng/mL, the “CANP Inhibitory Activity ID50 (mole/mole)” value [2] was 35 mole/mole and the “Papain ID50 (amount of inhibitor for 50% inhibition)” value [3] was 0.112 µg.
For `O=C(O)C1OC1C(=O)N[C@@H](Cc1ccccc1)C(=O)OCc1ccccc1` (stereo partly drawn) [D, N--(3carboxyoxirane-2-carbonyl)-L-phenylalanine benzyl ester, reference compound], the concentration at 1 h [1] was < 1000 ng/mL and the “CANP Inhibitory Activity ID50 (mole/mole)” value [2] was 574 mole/mole.
With `O=C(O)[C@H]1O[C@@H]1C(=O)OCc1ccccc1` (relative stereo) [B, Benzyl hydrogen epoxysuccinate, reference compound] the concentration at 1 h [1] was < 1000 ng/mL and the “CANP Inhibitory Activity ID50 (mole/mole)” value [2] was 410 mole/mole.
For `CC[C@H](C)[C@H](NC(=O)C1OC1C(=O)OCc1ccccc1)C(=O)N(C)Cc1ccccc1` (mixture of isomers) [Compound 12, N-[N'-(DL-3-trans-benzyloxycarbonyloxirane-2-carbonyl)-L-isoleucyl]-N-methylbenzylamine], the concentration at 1 h [1] was 1300 ng/mL, the “CANP Inhibitory Activity ID50 (mole/mole)” value [2] was 65 mole/mole and the “Papain ID50 (amount of inhibitor for 50% inhibition)” value [3] was 0.260 µg.
In the case of `CC(C)C[C@H](NC(=O)C1OC1C(=O)O)C(=O)O` (stereo partly drawn) [E, N--(3carboxyoxirane-2-carbonyl)-L-leucine, reference compound], the concentration at 1 h [1] is reported as < 1000 ng/mL and the “CANP Inhibitory Activity ID50 (mole/mole)” value [2] is reported as 4,600 mole/mole.
For `CCOC(=O)[C@H]1O[C@@H]1C(=O)O` (relative stereo) [A, Ethyl hydrogen epoxysuccinate, reference compound], the concentration at 1 h [1] was < 1000 ng/mL and the “CANP Inhibitory Activity ID50 (mole/mole)” value [2] was 5,400 mole/mole.
For `COC(=O)[C@H](C)NC(=O)[C@@H](NC(=O)C1OC1C(=O)OCc1ccccc1)C(C)C` (some centres unmarked) [Compound 42], the concentration at 1 h [1] was 1100 ng/mL, the “CANP Inhibitory Activity ID50 (mole/mole)” value [2] was 120 mole/mole and the “Papain ID50 (amount of inhibitor for 50% inhibition)” value [3] was 0.595 µg.
For `CC(C)C[C@H](NC(=O)[C@H](CC(C)C)NC(=O)C1OC1C(=O)OCc1ccccc1)C(N)=O` (some centres unmarked) [Compound 34], the “Papain ID50 (amount of inhibitor for 50% inhibition)” value [3] was 0.298 µg.
With `COC(=O)[C@@H](CC(C)C)NC(=O)[C@@H](CC(C)C)NC(=O)C1OC1C(=O)OCc1ccccc1` (some centres unmarked) [Compound 33] the “Papain ID50 (amount of inhibitor for 50% inhibition)” value [3] was 0.255 µg.
For `COC(=O)[C@@H](CC(C)C)NC(=O)[C@H](CC(C)C)NC(=O)[C@H]1O[C@@H]1C(=O)OCc1ccccc1` [Compound 25, N-(L-3-trans-benzyloxycarbonyloxirane-2-carbonyl)-L-leucyl-D-leucine methyl ester], the “Papain ID50 (amount of inhibitor for 50% inhibition)” value [3] was 0.223 µg.
With `CC[C@H](C)[C@H](NC(=O)[C@H](CC(C)C)NC(=O)C1OC1C(=O)OCc1ccccc1)C(=O)OC` (mixture of isomers) [Compound 21, N-(DL-3 trans-benzyloxycarbonyloxirane-2-carbonyl)-L-leucyl-L-isoleucine methyl ester] the “Papain ID50 (amount of inhibitor for 50% inhibition)” value [3] was 0.169 µg.
In the case of `COC(=O)[C@H](CC(C)C)NC(=O)[C@@H](CC(C)C)NC(=O)C1OC1C(=O)OCc1ccccc1` (mixture of isomers) [Compound 22, N-(DL-3-trans-benzyloxycarbonyloxirane-2-carbonyl)-D-leucyl-L-leucine methyl ester], the “Papain ID50 (amount of inhibitor for 50% inhibition)” value [3] is reported as 8.28 µg.
With `CC(C)C[C@H](NC(=O)[C@H](CC(C)C)NC(=O)C1OC1C(=O)O)C(=O)O` (mixture of isomers) [Compound 45, N-(DL-3-trans-carboxyoxirane-2-carbonyl)-L-leucyl-L-leucine] the concentration at 1 h [1] was 15000 ng/mL, the “CANP Inhibitory Activity ID50 (mole/mole)” value [2] was 64 mole/mole and the “Papain ID50 (amount of inhibitor for 50% inhibition)” value [3] was 0.236 µg.
With `CC(C)C[C@H](NC(=O)C1OC1C(=O)O)C(=O)NCCc1ccccc1` (mixture of isomers) [Compound 16, N-[N'-(DL-3-trans-carboxyoxirane-2-carbonyl)-L-leucyl]phenethylamine potassium salt] the concentration at 1 h [1] was 12000 ng/mL, the “CANP Inhibitory Activity ID50 (mole/mole)” value [2] was 90 mole/mole and the “Papain ID50 (amount of inhibitor for 50% inhibition)” value [3] was 0.123 µg.
For `CCCNC(=O)[C@H](CC(C)C)NC(=O)C1OC1C(=O)OCC` (some centres unmarked) [Compound 9], the “Papain ID50 (amount of inhibitor for 50% inhibition)” value [3] was 0.313 µg.
In the case of `COC(=O)[C@H](CC(C)C)NC(=O)[C@H](Cc1ccccc1)NC(=O)C1OC1C(=O)OCc1ccccc1` (some centres unmarked) [Compound 36], the concentration at 1 h [1] is reported as 1800 ng/mL, the “CANP Inhibitory Activity ID50 (mole/mole)” value [2] is reported as 200 mole/mole and the “Papain ID50 (amount of inhibitor for 50% inhibition)” value [3] is reported as 0.595 µg.
With `CCOC(=O)C1OC1C(=O)N[C@@H](CC(C)C)C(=O)N[C@@H](CC(C)C)C(=O)N(C)C` (some centres unmarked) [Compound 35] the “Papain ID50 (amount of inhibitor for 50% inhibition)” value [3] was 0.212 µg.
With `CCOC(=O)C1OC1C(=O)N[C@@H](CC(C)C)C(=O)NCCc1ccccc1` (some centres unmarked) [Compound 8] the “Papain ID50 (amount of inhibitor for 50% inhibition)” value [3] was 0.446 µg.
For `COC(=O)[C@@H]1CCCN1C(=O)[C@H](CC(C)C)NC(=O)C1OC1C(=O)OCc1ccccc1` (mixture of isomers) [Compound 19, N-(DL-3-trans-benzyloxycarbonyloxirane-2-carbonyl)-L-leucyl-L-proline methyl ester], the concentration at 1 h [1] was 1500 ng/mL, the “CANP Inhibitory Activity ID50 (mole/mole)” value [2] was 23 mole/mole and the “Papain ID50 (amount of inhibitor for 50% inhibition)” value [3] was 0.123 µg.
With `COC(=O)[C@H](CCCN=C(N)N)NC(=O)[C@H](CC(C)C)NC(=O)C1OC1C(=O)O` (mixture of isomers) [Compound 43, N-(DL-3-transcarboxyoxirane-2-carbonyl)-L-leucyl-L-arginine methyl ester] the concentration at 1 h [1] was 7000 ng/mL, the “CANP Inhibitory Activity ID50 (mole/mole)” value [2] was 100 mole/mole and the “Papain ID50 (amount of inhibitor for 50% inhibition)” value [3] was 0.195 µg.
In the case of `COC(=O)[C@H](CC(C)C)NC(=O)[C@H](CC(C)C)NC(=O)C1OC1C(=O)OCc1ccccc1` (some centres unmarked) [Compound 32], the “Papain ID50 (amount of inhibitor for 50% inhibition)” value [3] is reported as 0.227 µg.
In the case of `COC(=O)[C@H](CCSC)NC(=O)[C@H](CC(C)C)NC(=O)C1OC1C(=O)OCc1ccccc1` (some centres unmarked) [Compound 27], the “Papain ID50 (amount of inhibitor for 50% inhibition)” value [3] is reported as 0.216 µg.
